Data from PubChem BioAssay (NCI).
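These data come from cells grown in 96-well plates and exposed to compound for 48 hours at five concentrations. GI50 = concentration required for 50% inhibition of growth. At the TGI there is no net growth.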

How the values were obtained:
Assay in all cases: growth of human tumour cells (NCI), 48 h
SK-OV-3 ovarian = tested on: SK-OV-3 ovarian
MALME-3M melanoma = tested on: MALME-3M melanoma
SN12C renal = tested on: SN12C renal
DU-145 prostate = tested on: DU-145 prostate
NCI-H460 lung = tested on: NCI-H460 lung
NCI/ADR-RES ovarian = tested on: NCI/ADR-RES ovarian
MDA-N = tested on: MDA-N
COLO 205 colon = tested on: COLO 205 colon
786-0 renal = tested on: 786-0 renal
M19-MEL melanoma = tested on: M19-MEL melanoma
LXFL 529 NSCLC = tested on: LXFL 529 NSCLC
DLD-1 colon = tested on: DLD-1 colon
DMS 114 small cell lung = tested on: DMS 114 small cell lung

## CCN1C=C/C(=C\C=C/c2cc[n+](CC)c3ccccc23)c2ccccc21
SK-OV-3 ovarian
  TGI: 15.1 µM
MALME-3M melanoma
  TGI: 30.5 µM
SN12C renal
  TGI: 12.3 µM
DU-145 prostate
  TGI: 26.3 µM
NCI-H460 lung
  TGI: 11 µM
NCI/ADR-RES ovarian
  TGI: > 100 µM
MDA-N
  TGI: 19.3 µM
COLO 205 colon
  TGI: 17 µM
786-0 renal
  TGI: 18.2 µM

## CC(C)CCC[C@@H](C)[C@H]1CC[C@H]2[C@@H]3CC[C@H]4C[C@H](N)CC[C@]4(C)[C@H]3CC[C@]12C
SK-OV-3 ovarian
  TGI: 64.5 µM
MALME-3M melanoma
  TGI: 38.7 µM
SN12C renal
  TGI: > 100 µM
DU-145 prostate
  TGI: 33.9 µM
NCI-H460 lung
  TGI: > 100 µM
NCI/ADR-RES ovarian
  TGI: 95.3 µM
MDA-N
  TGI: > 100 µM
COLO 205 colon
  TGI: 56.3 µM
786-0 renal
  TGI: > 100 µM

## Nc1cc2c(nnn2C2OC(COCc3ccccc3)C(OCc3ccccc3)C2OCc2ccccc2)c(=O)[nH]1 (stereo not drawn)
SK-OV-3 ovarian
  TGI: > 100 µM
MALME-3M melanoma
  TGI: > 100 µM
SN12C renal
  TGI: 40.3 µM
DU-145 prostate
  TGI: > 100 µM
NCI-H460 lung
  TGI: 92.3 µM
NCI/ADR-RES ovarian
  TGI: > 100 µM
MDA-N
  TGI: 34 µM
COLO 205 colon
  TGI: 20.3 µM
786-0 renal
  TGI: > 100 µM

## c1ccc(C2CC(c3cccc(Nc4ccncc4)c3)=NN2c2ccccc2)cc1 (stereo not drawn)
SK-OV-3 ovarian
  GI50: 2.38 µM
  TGI: 5.49 µM
MALME-3M melanoma
  GI50: 1.57 µM
  TGI: 3.02 µM
SN12C renal
  GI50: 1.65 µM
  TGI: 3.06 µM
DU-145 prostate
  GI50: 1.95 µM
  TGI: 4.02 µM
NCI-H460 lung
  GI50: 1.72 µM
  TGI: 3.25 µM
NCI/ADR-RES ovarian
  GI50: 1.74 µM
  TGI: 3.54 µM
COLO 205 colon
  GI50: 1.9 µM
  TGI: 3.86 µM

## CC(C)(C)OC(=O)NCC(=O)NC1c2ccsc2/C(=N/O)[C@H]1O (stereo partly drawn)
SK-OV-3 ovarian
  TGI: > 100 µM
MALME-3M melanoma
  TGI: > 100 µM
SN12C renal
  TGI: > 100 µM
DU-145 prostate
  TGI: > 100 µM
NCI-H460 lung
  TGI: > 100 µM
NCI/ADR-RES ovarian
  TGI: > 100 µM
MDA-N
  TGI: > 100 µM
COLO 205 colon
  TGI: > 100 µM

## CCCCCCNC(=O)c1cc(CCc2cc(O)ccc2O)ccc1O
SK-OV-3 ovarian
  TGI: 25 µM
MALME-3M melanoma
  TGI: 6.47 µM
SN12C renal
  GI50: 2.18 µM
  TGI: 5.77 µM
DU-145 prostate
  TGI: 22.7 µM
NCI-H460 lung
  TGI: 27.4 µM
NCI/ADR-RES ovarian
  TGI: > 67.7 µM
MDA-N
  TGI: 9.54 µM
COLO 205 colon
  TGI: 41.6 µM
786-0 renal
  TGI: 4.26 µM

## COc1ccc2c(c1)CCN=C2Cc1cc(OC)c(OC)cc1CCCl
SK-OV-3 ovarian
  TGI: > 100 µM
MALME-3M melanoma
  TGI: 73.8 µM
SN12C renal
  TGI: > 100 µM
DU-145 prostate
  TGI: > 100 µM
NCI-H460 lung
  TGI: > 100 µM
NCI/ADR-RES ovarian
  TGI: > 100 µM
MDA-N
  TGI: > 100 µM
COLO 205 colon
  TGI: > 100 µM

## Cc1ccc(NP(=O)(Oc2ccccc2)N(CCCl)CCCl)cc1 (stereo not drawn)
SK-OV-3 ovarian
  TGI: > 100 µM
MALME-3M melanoma
  TGI: > 100 µM
SN12C renal
  TGI: > 100 µM
M19-MEL melanoma
  TGI: > 100 µM
LXFL 529 NSCLC
  TGI: > 100 µM
COLO 205 colon
  TGI: > 100 µM
DLD-1 colon
  TGI: > 100 µM
DMS 114 small cell lung
  TGI: > 100 µM

## CN(c1cc2ncc(=O)[nH]c2cc1NC(N)=NCc1ccc(Cl)cc1)C1CCCCC1
SK-OV-3 ovarian
  GI50: 7.6 µM
  TGI: 15.8 µM
MALME-3M melanoma
  GI50: 8.5 µM
  TGI: 17.5 µM
SN12C renal
  GI50: 7.23 µM
  TGI: 15.5 µM
DU-145 prostate
  GI50: 7.56 µM
  TGI: 14.3 µM
NCI-H460 lung
  GI50: 7.14 µM
  TGI: 14.5 µM
NCI/ADR-RES ovarian
  GI50: 23.1 µM
  TGI: 50 µM
COLO 205 colon
  GI50: 1.11 µM
  TGI: 2.55 µM

## CC(=O)Oc1c(C)c2c(O)c3c1C1=C(OCOC1=C(C)C3=O)/C(C)=C\C(C)(O)C(O)C(C)C(O)C1C(=O)OC(C(C)C1O)C(C)(O)/C=C/C=C(C)C(=O)N2 (stereo not drawn)
SK-OV-3 ovarian
  TGI: > 100 µM
MALME-3M melanoma
  TGI: > 100 µM
SN12C renal
  TGI: > 100 µM
DU-145 prostate
  TGI: > 100 µM
NCI-H460 lung
  TGI: > 100 µM
NCI/ADR-RES ovarian
  TGI: > 100 µM
MDA-N
  TGI: > 100 µM
COLO 205 colon
  TGI: > 100 µM
786-0 renal
  TGI: > 100 µM
